Results taken from patent US20190256929A1, “PHARMACODYNAMIC BIOMARKERS FOR PERSONALIZED CANCER CARE USING EPIGENETIC MODIFYING AGENTS” (ORYZON GENOMICS, S.A., priority 2016, published 2019).

System: small cell lung cancer cell lines
Assay: qRT-PCR time- and dosage-dependent expression change of candidate PD markers ASCL1, GRP, NOTCH1 in SCLC cell lines
Format: cell-based, human
Method: Seven small cell lung cancer cell lines were treated with 0.1 nM, 1 nM and 10 nM (trans)-N1-((1R,2S)-2-phenylcyclopropyl)cyclohexane-1,4-diamine or vehicle 24 hr, 96 hr and 7 days. Lysates were prepared by lysis in RNA lysis buffer containing 1% β-mercaptoethanol. RNA extraction was performed using a Maxwell 16 instrument and a Maxwell 16 LEV simply RNA cells Kit (Promega), according to the manufacturer's instructions. The mRNA expression levels of each cell line after treatment were then measured using qRT-PCR. The RT-qPCR reaction was conducted using a one-step kit (ABI), with a duplexed house-keeping control (Assay ID Hs02800695_m1) using the assays in the table below. The log 2 fold changes for each gene were calculated by comparing with the vehicle controlled samples at 24 hr sampling point.
Table 6 contains the dose-dependent effect on expression changes for candidate PD markers ASCL1 (Assay ID Hs04187546_g1), GRP (Assay ID Hs01107047_m1) and NOTCH1 (Assay ID Hs01062014_m1).

[1] = SHP-77, 0.1 nM, 24 hrs, vs vehicle at 24 hr
[2] = SHP-77, 0.1 nM, 96 hrs, vs vehicle at 24 hr
[3] = SHP-77, 0.1 nM, 168 hrs, vs vehicle at 24 hr
[4] = SHP-77, 1 nM, 24 hrs, vs vehicle at 24 hr
[5] = SHP-77, 1 nM, 96 hrs, vs vehicle at 24 hr
[6] = SHP-77, 1 nM, 168 hrs, vs vehicle at 24 hr
[7] = SHP-77, 10 nM, 24 hrs, vs vehicle at 24 hr
[8] = SHP-77, 10 nM, 96 hrs, vs vehicle at 24 hr
[9] = SHP-77, 10 nM, 168 hrs, vs vehicle at 24 hr

In the case of `N[C@H]1CC[C@H](N[C@@H]2C[C@H]2c2ccccc2)CC1` [RG6016, (trans)-N1-((1R,2S)-2-phenylcyclopropyl)cyclohexane-1,4-diamine], the “Log2_FC ASCL1” value (NCI-H510A, 1 nM, 168 hrs) is reported as −0.51, the “Log2_FC GRP” value (NCI-H510A, 1 nM, 168 hrs) is reported as −2.34 and the “Log2_FC NOTCH1” value (NCI-H510A, 1 nM, 168 hrs) is reported as 3.98. For the same compound, the “Log2_FC ASCL1” value (NCI-H510A, 10 nM, 24 hrs) was −0.28, the “Log2_FC GRP” value (NCI-H510A, 10 nM, 24 hrs) was −0.35 and the “Log2_FC NOTCH1” value (NCI-H510A, 10 nM, 24 hrs) was 1.60. The “Log2_FC ASCL1” value (NCI-H510A, 10 nM, 96 hrs) was −0.55, the “Log2_FC GRP” value (NCI-H510A, 10 nM, 96 hrs) was −2.02 and the “Log2_FC NOTCH1” value (NCI-H510A, 10 nM, 96 hrs) was 2.89. The “Log2_FC ASCL1” value (NCI-H510A, 10 nM, 168 hrs) was −0.64, the “Log2_FC GRP” value (NCI-H510A, 10 nM, 168 hrs) was −2.53 and the “Log2_FC NOTCH1” value (NCI-H510A, 10 nM, 168 hrs) was 4.16. For the same compound, the “Log2_FC NOTCH1” value (NCI-H526, 0.1 nM, 24 hrs, vs vehicle at 24 hr) was 0.04, the “Log2_FC NOTCH1” value (NCI-H526, 0.1 nM, 96 hrs, vs vehicle at 24 hr) was 0.51 and the “Log2_FC NOTCH1” value (NCI-H526, 0.1 nM, 168 hrs, vs vehicle at 24 hr) was 0.55. For the same compound, the “Log2_FC NOTCH1” value (NCI-H526, 1 nM, 24 hrs, vs vehicle at 24 hr) was 0.27, the “Log2_FC NOTCH1” value (NCI-H526, 1 nM, 96 hrs, vs vehicle at 24 hr) was 0.53 and the “Log2_FC NOTCH1” value (NCI-H526, 1 nM, 168 hrs, vs vehicle at 24 hr) was 0.96. For the same compound, the “Log2_FC NOTCH1” value (NCI-H526, 10 nM, 24 hrs, vs vehicle at 24 hr) was 0.41, the “Log2_FC NOTCH1” value (NCI-H526, 10 nM, 96 hrs, vs vehicle at 24 hr) was 0.70 and the “Log2_FC NOTCH1” value (NCI-H526, 10 nM, 168 hrs, vs vehicle at 24 hr) was 0.33. The “Log2_FC ASCL1” value (NCI-H1417, 0.1 nM, 24 hrs) was −0.19, the “Log2_FC GRP” value (NCI-H1417, 0.1 nM, 24 hrs) was 0.24 and the “Log2_FC NOTCH1” value (NCI-H1417, 0.1 nM, 24 hrs) was 0.14. The “Log2_FC ASCL1” value (NCI-H1417, 0.1 nM, 96 hrs) was 0.12, the “Log2_FC GRP” value (NCI-H1417, 0.1 nM, 96 hrs) was −0.25 and the “Log2_FC NOTCH1” value (NCI-H1417, 0.1 nM, 96 hrs) was 0.98. The “Log2_FC ASCL1” value (NCI-H1417, 0.1 nM, 168 hrs) was 0.13, the “Log2_FC GRP” value (NCI-H1417, 0.1 nM, 168 hrs) was −0.51 and the “Log2_FC NOTCH1” value (NCI-H1417, 0.1 nM, 168 hrs) was 0.86. The “Log2_FC ASCL1” value (NCI-H1417, 1 nM, 24 hrs) was −0.20, the “Log2_FC GRP” value (NCI-H1417, 1 nM, 24 hrs) was −0.25 and the “Log2_FC NOTCH1” value (NCI-H1417, 1 nM, 24 hrs) was 1.40. For the same compound, the “Log2_FC ASCL1” value (NCI-H1417, 1 nM, 96 hrs) was −0.27, the “Log2_FC GRP” value (NCI-H1417, 1 nM, 96 hrs) was −1.06 and the “Log2_FC NOTCH1” value (NCI-H1417, 1 nM, 96 hrs) was 3.04. For the same compound, the “Log2_FC ASCL1” value (NCI-H1417, 1 nM, 168 hrs) was −0.19, the “Log2_FC GRP” value (NCI-H1417, 1 nM, 168 hrs) was −0.68 and the “Log2_FC NOTCH1” value (NCI-H1417, 1 nM, 168 hrs) was 2.55. The “Log2_FC ASCL1” value (NCI-H1417, 10 nM, 24 hrs) was −0.25, the “Log2_FC GRP” value (NCI-H1417, 10 nM, 24 hrs) was −0.35 and the “Log2_FC NOTCH1” value (NCI-H1417, 10 nM, 24 hrs) was 1.86. The “Log2_FC ASCL1” value (NCI-H1417, 10 nM, 96 hrs) was −0.54, the “Log2_FC GRP” value (NCI-H1417, 10 nM, 96 hrs) was −1.13 and the “Log2_FC NOTCH1” value (NCI-H1417, 10 nM, 96 hrs) was 3.14. The “Log2_FC ASCL1” value (NCI-H1417, 10 nM, 168 hrs) was −0.66, the “Log2_FC GRP” value (NCI-H1417, 10 nM, 168 hrs) was −1.14 and the “Log2_FC NOTCH1” value (NCI-H1417, 10 nM, 168 hrs) was 3.22. The “Log2_FC ASCL1” value (NCI-H1876, 0.1 nM, 24 hrs) was 0.16, the “Log2_FC GRP” value (NCI-H1876, 0.1 nM, 24 hrs) was 0.41 and the “Log2_FC NOTCH1” value (NCI-H1876, 0.1 nM, 24 hrs) was 0.82. For the same compound, the “Log2_FC ASCL1” value (NCI-H1876, 0.1 nM, 96 hrs) was −0.58, the “Log2_FC GRP” value (NCI-H1876, 0.1 nM, 96 hrs) was −1.58 and the “Log2_FC NOTCH1” value (NCI-H1876, 0.1 nM, 96 hrs) was −0.76. The “Log2_FC ASCL1” value (NCI-H1876, 0.1 nM, 168 hrs) was 0.35, the “Log2_FC NOTCH1” value (NCI-H1876, 0.1 nM, 168 hrs) was −0.59 and the “Log2_FC ASCL1” value (NCI-H1876, 1 nM, 24 hrs) was 0.04. The “Log2_FC GRP” value (NCI-H1876, 1 nM, 24 hrs) was 0.70, the “Log2_FC NOTCH1” value (NCI-H1876, 1 nM, 24 hrs) was 2.28 and the “Log2_FC ASCL1” value (NCI-H1876, 1 nM, 96 hrs) was −0.54. The “Log2_FC GRP” value (NCI-H1876, 1 nM, 96 hrs) was −1.96, the “Log2_FC NOTCH1” value (NCI-H1876, 1 nM, 96 hrs) was 1.08 and the “Log2_FC ASCL1” value (NCI-H1876, 1 nM, 168 hrs) was 0.32. For the same compound, the “Log2_FC GRP” value (NCI-H1876, 1 nM, 168 hrs) was −0.54, the “Log2_FC ASCL1” value (NCI-H1876, 10 nM, 24 hrs) was −0.02 and the “Log2_FC GRP” value (NCI-H1876, 10 nM, 24 hrs) was 0.38. For the same compound, the “Log2_FC NOTCH1” value (NCI-H1876, 10 nM, 24 hrs) was 2.67, the “Log2_FC ASCL1” value (NCI-H1876, 10 nM, 96 hrs) was −0.82 and the “Log2_FC NOTCH1” value (NCI-H1876, 10 nM, 96 hrs) was 2.07. For the same compound, the “Log2_FC ASCL1” value (NCI-H1876, 10 nM, 168 hrs) was 0.03, the “Log2_FC GRP” value (NCI-H1876, 10 nM, 168 hrs) was −1.38 and the “Log2_FC NOTCH1” value (NCI-H1876, 10 nM, 168 hrs) was 2.55. For the same compound, the “Log2_FC ASCL1” value (NCI-H2171, 0.1 nM, 24 hrs) was −0.14, the “Log2_FC GRP” value (NCI-H2171, 0.1 nM, 24 hrs) was 0.01 and the “Log2_FC NOTCH1” value (NCI-H2171, 0.1 nM, 24 hrs) was 0.49. For the same compound, the “Log2_FC ASCL1” value (NCI-H2171, 0.1 nM, 96 hrs) was −0.29, the “Log2_FC GRP” value (NCI-H2171, 0.1 nM, 96 hrs) was −1.96 and the “Log2_FC NOTCH1” value (NCI-H2171, 0.1 nM, 96 hrs) was 0.95. The “Log2_FC ASCL1” value (NCI-H2171, 0.1 nM, 168 hrs) was −0.16, the “Log2_FC GRP” value (NCI-H2171, 0.1 nM, 168 hrs) was −1.11 and the “Log2_FC NOTCH1” value (NCI-H2171, 0.1 nM, 168 hrs) was 0.90. For the same compound, the “Log2_FC ASCL1” value (NCI-H2171, 1 nM, 24 hrs) was −0.06, the “Log2_FC NOTCH1” value (NCI-H2171, 1 nM, 24 hrs) was 0.75 and the “Log2_FC ASCL1” value (NCI-H2171, 1 nM, 96 hrs) was −0.43. For the same compound, the “Log2_FC GRP” value (NCI-H2171, 1 nM, 96 hrs) was −1.17, the “Log2_FC NOTCH1” value (NCI-H2171, 1 nM, 96 hrs) was 1.17 and the “Log2_FC ASCL1” value (NCI-H2171, 1 nM, 168 hrs) was −0.02. For the same compound, the “Log2_FC GRP” value (NCI-H2171, 1 nM, 168 hrs) was −1.56, the “Log2_FC NOTCH1” value (NCI-H2171, 1 nM, 168 hrs) was 1.41 and the “Log2_FC ASCL1” value (NCI-H2171, 10 nM, 24 hrs) was −0.16. For the same compound, the “Log2_FC GRP” value (NCI-H2171, 10 nM, 24 hrs) was −0.37, the “Log2_FC NOTCH1” value (NCI-H2171, 10 nM, 24 hrs) was 0.82 and the “Log2_FC ASCL1” value (NCI-H2171, 10 nM, 96 hrs) was −0.27. The “Log2_FC GRP” value (NCI-H2171, 10 nM, 96 hrs) was −0.46, the “Log2_FC NOTCH1” value (NCI-H2171, 10 nM, 96 hrs) was 1.22 and the “Log2_FC ASCL1” value (NCI-H2171, 10 nM, 168 hrs) was −0.11. For the same compound, the “Log2_FC GRP” value (NCI-H2171, 10 nM, 168 hrs) was −0.87, the “Log2_FC NOTCH1” value (NCI-H2171, 10 nM, 168 hrs) was 1.63 and the “Log2_FC ASCL1” value [1] was −0.11. The “Log2_FC GRP” value [1] was 0.17, the “Log2_FC ASCL1” value [2] was 0.11 and the “Log2_FC GRP” value [2] was 0.74. The “Log2_FC ASCL1” value [3] was −0.36, the “Log2_FC GRP” value [3] was 0.43 and the “Log2_FC ASCL1” value [4] was 0.52. For the same compound, the “Log2_FC GRP” value [4] was 1.20, the “Log2_FC ASCL1” value [5] was 0.38 and the “Log2_FC GRP” value [5] was 0.83. The “Log2_FC ASCL1” value [6] was −0.33, the “Log2_FC GRP” value [6] was 0.16 and the “Log2_FC ASCL1” value [7] was −0.07. The “Log2_FC GRP” value [7] was −0.10, the “Log2_FC ASCL1” value [8] was 0.22 and the “Log2_FC GRP” value [8] was 0.56. The “Log2_FC ASCL1” value [9] was −0.50 and the “Log2_FC GRP” value [9] was −0.06.
